Measured values from publication PMC8297771 (PLoS Pathogens, 2021).

Assays:
Type in all cases: cell-based
[1] = tested on: HIV-GFP in LEDGF/p75 knockout Jurkat cell lines (1-F10 and 2-C10); assay: HIV-1 inhibition in infecting LEDGF/p75 knockout cells; details: 60 nM
Method: To test for STP0404’s inhibitory effects during the late stage of HIV-1 life cycle such as the maturation step, we employed the “producing cells” setup. In T75 tissue culture flasks, 293T cells were pre-treated with and without STP0404 (0 and 60 nM) for 2 hrs prior to transfection with pD3-HIV (13 μg) and pVSV-g (6 μg), using 0.3 mg/ml polyethylenimine. After 24 hrs incubation at 37°C, the supernatant was removed and replaced with fresh media with and without STP0404 (0 and 60 nM). 48 hrs later, D3-HIV vector from each treatment group was concentrated from the collected supernatant via ultracentrifugation (22,000 rpm for 2 hrs). Following p24 quantification, using 96-well plates, similar amount of respective D3-HIV vector was used to transduce Jurkat cells in triplicates for 48 hrs. The cells were harvested and fixed with 3.7% formaldehyde before being analyzed for GFP expression using FACS (Miltenyi Biotec, VYB). Separately, the “infecting cells” setup was used to investigate the inhibitory effects of STP0404 against the early stages of HIV-1 life cycle such as the integration and transcription steps. […] All data were analyzed using GraphPad Prism (Version 9). Unpaired t tests were performed to determine the significance of the readings in respective experimental set up relative to the untreated controls. […]

[2] = tested on: HIV-1_89.6 particles produced from 293 T cells; assay: TEM analysis of HIV-1 particle morphology; details: viruses produced from treated 293T cells; 1 μM
Method: 293T cells were transfected with plasmids containing proviral clones encoding WT HIV-1 89.6 using polyethylenimine (PEI). After 6 hrs, cells were rinsed with DPBS gently, and then cells were resuspended in a fresh media with or without the inhibitor (1 μM, final). At 96 hrs post-transfection, cell cultures were centrifuged (1,800 xg) and filtered through 0.45 μm filter to remove cells and any cell debris, and viruses were harvested by centrifugation at 100,000 xg for 1.5 hrs in the presence of TNE sucrose buffer (5% sucrose, final). The pellets were fixed in a buffer containing 0.1 M Na cacodylate at pH 7.4 and 2.5% Glutaraldehyde, and submitted to Emory Integrated Core Facilities for sectioning, followed by TEM. Virus pellets were dehydrated in a graduated ethanol series and embedded in Epon resin. Ultrathin sections were stained using uranyl acetate and observed under a transmission electron microscope (JEOL JEM-1400), equipped with Gatan CCD camera at the Emory Integrated Electron Microscopy Core. Total of approximately 1,000 virions each (with or without the inhibitor treatment) were captured in the images obtained for comparisons in virion morphology.

CEMx174 cells = assay: Tissue culture cytotoxicity measurement in CEMx174 cells
Method: Fig 1 ALLINI structures and STP0404 activities. A. Quinoline-based BI224436, B. Benzothiazole-based GS-9822, C. Pyridine-based KF116, D. Pyrrolopyridine-based STP0404. The conserved chemical moiety containing tert-butoxy and carboxylic acid groups are marked by “]”. E. In vitro anti-HIV-1 efficacy of STP0404 against HIV-1NL4-3 and 89.6 strains in indicated cell lines. TI: Minimal therapeutic index values were calculated with 50% in vitro inhibitory concentration values (IC50) and 10 μM where no sign of cytotoxicity was observed during tissue culture cytotoxicity measurements (TC50) of all tested compounds in both MT4 and CEMx174 cell lines.

HIV-1NL4-3 = assay: In vitro anti-viral assay in human PBMCs (RT activity readout)
Method: For the assay with human PBMCs, PHA stimulated cells from at least two pooled healthy were infected with HIV-1 strains in 96-well plates. Test drug dilutions, which were prepared at a 2X concentration in microtiter tubes and 100 μL of each concentration (nine total concentrations), were placed in appropriate wells using the standard format. 50 μL of a predetermined dilution of virus stock was placed in each test well (final MOI ≅ 0.1). The PBMC cultures were maintained for 7 days following infection at 37 °C, 5% CO2. After this period, cell-free supernatant samples were collected for analysis of reverse transcriptase (RT) activity. All assays were conducted in triplicates. For RT assay, a microtiter plate-based reverse transcriptase (RT) reaction was utilized (Buckheit et al., AIDS Research and Human Retroviruses 7:295–302, 1991). Tritiated thymidine triphosphate (^3H-TTP, 80 Ci/mmol, NEN) is received in 1:1 dH2O: Ethanol at 1 mCi/mL. Poly rA:oligo dT template:primer (GE Healthcare) was prepared as a stock solution by combining 150 μL poly rA (20 mg/mL) with 0.5 mL oligo dT (20 units/mL) and 5.35 mL sterile dH2O followed by aliquoting (1.0 mL) and storage at—20°C. The RT reaction buffer was prepared fresh on a daily basis and consisted of 125 μL 1.0 M EGTA, 125 μL dH2O, 125 μL 20% Triton X100, 50 μL 1.0 M Tris (pH 7.4), 50 μL 1.0 M DTT, and 40 μL 1.0 M MgCl2. The final reaction mixture was prepared by combining 1 part ^3H-TTP, 4 parts dH2O, 2.5 parts poly rA:oligo dT stock and 2.5 parts reaction buffer. Ten microliters of this reaction mixture were placed in a round bottom microtiter plate and 15 μL of virus containing supernatant is added and mixed. The plate was incubated at 37°C for 60 mins. Following incubation, the reaction volume was spotted onto DE81 filter-mats (Wallac), washed 5 times for 5 mins each in a 5% sodium phosphate buffer or 2X SSC (Life Technologies). Next they were washed 2 times for 1 min each in distilled water, 2 times for 1 min each in 70% ethanol, and then dried. Incorporated radioactivity (counts per min, CPM) was quantified using standard liquid scintillation techniques. These PBMC analysis was conducted by fee to service through Southern Research Institute (Frederick, MD, USA). The IC50 were analyzed using GraphPad Prism (Version 9) and presented as means ± S.D. of the triplicates.

## Cc1nc2c(c(C)c(C)n2Cc2cnn(C)c2)c(-c2ccc(Cl)cc2)c1[C@H](OC(C)(C)C)C(=O)O [STP0404]
[1]
  infection of LEDGF/p75 knockout Jurkat T cells: failed to significantly inhibit infection
[2]
  localization of viral RNA genomes in virus particles (TEM): viral RNA genomes outside of the capsid
CEMx174 cells
  TC50: > 10,000 nM
HIV-1NL4-3; Human immunodeficiency virus 1, NL43, PBMC
  IC50: 410 ± 430 pM
HIV-1NL4-3; human PBMCs, NL4-3, minimal TI from IC50 and 10 μM
  TI (TC50 / IC50): >24,000
